For assay [1], the system named is Rattus norvegicus. The assay can be described thus: Inhibition of rat passive cutaneous anaphylaxis following i.p. administration. The class given is functional. Conditions: ip.
Assay [2] has as its system Rattus norvegicus. The assay can be described thus: Inhibition of rat passive cutaneous anaphylaxis following p.o. administration. Particulars: po.
Assay [3] relates to Rattus norvegicus. The assay can be described thus: Inhibition of rat passive cutaneous anaphylaxis following p.o. administration; Not active.

For orientation: ED50 means the midpoint of the dose-response relation.

Active and inactive are the calls of the source. The calls are words filed in the database; no cut-off is given here.

`CCOC(=O)C(=O)Nc1cc(C#N)cc(NC(=O)c2nn[nH]n2)c1` displayed an ED50 with Rattus norvegicus [1] of 0.2 mg/kg.

For `O=C(Nc1cc(Cl)cc(NC(=O)c2nnn[n-]2)n1)c1nnn[n-]1.[Na+].[Na+]`, the ED50 in the assay on Rattus norvegicus [2] is 2 mg/kg; with Rattus norvegicus [1] it was 0.2 mg/kg.

On to `COc1cccc(NC(=O)c2nn[nH]n2)c1C(N)=O`, for which the figures for the median effective dose (ED50) in the assay on Rattus norvegicus [2] and in the assay on Rattus norvegicus [1] were 0.2 mg/kg and 0.1 mg/kg, respectively.

As to `N#Cc1cc(NC(=O)c2nnn[n-]2)c(Cl)c(NC(=O)c2nnn[n-]2)c1.[Na+].[Na+]`, in the assay with Rattus norvegicus [1], it took a dose of 0.3 mg/kg to reach the 50% effect level (ED50).

For `CN1CCN(c2cccc(NC(=O)c3nn[nH]n3)c2C(N)=O)CC1`, the ED50 in the assay with Rattus norvegicus [2] came to 2.3 mg/kg; with Rattus norvegicus [1] it was 0.01 mg/kg.

For the compound `NC(=O)c1c(NC(=O)c2nnn[n-]2)cccc1N1CCCCC1.[Na+]`, the ED50 with Rattus norvegicus [2] stood at 46 mg/kg; in the assay with Rattus norvegicus [1] it was 0.8 mg/kg.

As for `CN1CCN(c2cccc(NC(=O)c3nn[nH]n3)c2C#N)CC1`, the figures for the ED50 in the assay with Rattus norvegicus [2] and in the assay with Rattus norvegicus [1] were 0.2 mg/kg and 0.02 mg/kg, respectively.

Consider `O=C(Nc1cccc(NC(=O)c2nnn[n-]2)n1)c1nnn[n-]1.[Na+].[Na+]`, for which the median effective dose (ED50) in the assay on Rattus norvegicus [2] stood at 0.1 mg/kg; with Rattus norvegicus [1], 0.02 mg/kg.

As for `N#Cc1c(NC(=O)c2nnn[n-]2)cccc1N1CCCCC1.[Na+]`, the ED50 in the assay on Rattus norvegicus [2] is 7 mg/kg; in the assay with Rattus norvegicus [1], 0.4 mg/kg.

For the compound `NC(=O)c1c(NC(=O)c2nnn[n-]2)cccc1N1CCOCC1.[Na+]`, the ED50 with Rattus norvegicus [1] was found to be 0.2 mg/kg.

`CN(C)c1cccc(NC(=O)c2nnn[n-]2)c1C#N.[Na+]`: the ED50 in the assay with Rattus norvegicus [2] was determined as 1.7 mg/kg; with Rattus norvegicus [1] it was 2 mg/kg.

`O=C(Nc1cc(C(F)(F)F)cc(NC(=O)c2nnn[n-]2)c1Cl)c1nnn[n-]1.[Na+].[Na+]` returned a 50% effective dose (ED50) in the assay with Rattus norvegicus [1] of 1.6 mg/kg.

On to `N#Cc1c(NC(=O)c2nn[nH]n2)cccc1N1CCOCC1`, for which the values for the ED50 with Rattus norvegicus [2] and with Rattus norvegicus [1] were 10 mg/kg and 0.5 mg/kg, respectively.

As to `N#Cc1cc(NC(=O)c2nnn[n-]2)cc(NC(=O)c2nnn[n-]2)c1.[Na+].[Na+]`, the ED50 in the assay with Rattus norvegicus [2] is 1 mg/kg; in the assay with Rattus norvegicus [1], 0.04 mg/kg.

Consider `N#Cc1ccccc1NC(=O)c1nnn[n-]1.[Na+]`, for which the 50% effective dose (ED50) with Rattus norvegicus [2] was 10 mg/kg; in the assay on Rattus norvegicus [1], 0.5 mg/kg.

For the compound `CN(C)c1cccc(NC(=O)c2nnn[n-]2)c1C(N)=O.[Na+]`, the median effective dose (ED50) was determined as 34 mg/kg in the assay on Rattus norvegicus [2] and 0.9 mg/kg in the assay with Rattus norvegicus [1].

With `CCNc1cccc(NC(=O)c2nnn[n-]2)c1C#N.[Na+]`, the ED50 in the assay on Rattus norvegicus [2] worked out at 2.6 mg/kg; in the assay with Rattus norvegicus [1] it was 1.1 mg/kg.

For `O=C(Nc1ccccn1)c1nnn[n-]1.[Na+]`, the ED50 was 0.68 mg/kg with Rattus norvegicus [2] and 0.31 mg/kg in the assay with Rattus norvegicus [1].

Turning to `NC(=O)c1cc(NC(=O)c2nnn[n-]2)cc(NC(=O)c2nnn[n-]2)c1.[Na+].[Na+]`, the median effective dose (ED50) is over 10 mg/kg with Rattus norvegicus [2] and 0.02 mg/kg in the assay on Rattus norvegicus [1].

On to `O=C([O-])c1cc(=O)c2c(OCC(O)COc3cccc4oc(C(=O)[O-])cc(=O)c34)cccc2o1.[Na+].[Na+]` [CROMOLYN SODIUM], for which the ED50 with Rattus norvegicus [1] is 8 mg/kg. Moreover, the ED50 result in the assay on Rattus norvegicus [3] is “inactive”.

The record behind these values is ChEMBL document CHEMBL1121892, “5-Tetrazolecarboxamides and their salts: new orally active antiallergy agents” (1981).
